“Also recorded” adds a separate entry of the source.

The test system of data set [1] is ES-cell-derived embryoid bodies. Description: HB9+ motor neuron generation in embryoid bodies. In kind it is cell-based, mouse. The protocol:
(§1) For some experiments, ES cells were grown on a monolayer of stromal PA6 cell line (Riken Cell Bank, Japan), in DFK5 medium alone, or supplemented with 2 μM RA, as described (Kawasaki et al., Induction of midbrain dopaminergic neurons from ES cells by stromal cell-derived inducing activity. Neuron, 28:31-40, 2000).
To begin to examine the capacity of mouse ES cells to generate motor neurons, the inventors grew mouse ES cells in aggregate culture for 2 days, a procedure that results in the formation of embryoid bodies (EBs) (Bain et al., Embryonic stem cells express neuronal properties in vitro. Dev. Biol., 168:342-57, 1995).

The test system of the next data set is HBG3 ES cells. Description: eGFP+ motor neuron generation in HBG3 ES-cell-derived embryoid bodies. In kind it is cell-based, mouse. The protocol: as §1
A transgenic mouse line was established by pronucleus injection of a construct that used a ˜9 kB fragment comprising the 5′ upstream region of the murine HB9 gene (Arber et al., Requirement for the homeobox gene Hb9 in the consolidation of motor neuron identity. Neuron, 23:659-764, 1999), followed by a 5′ splice substrate (Choi et al., A generic intron increases gene expression in transgenic mice. Mol. Cell Biol., 11:3070-74, 1991), an eGFP gene, and a bovine growth hormone polyadenylation signal. The ˜9 kB Not1 fragment of HB9 is sufficient to direct eGFP expression to develop motor neurons in transgenic embryos examined from E9.5 to P10. In one transgenic line (mHB9-Gfp1b), the pattern of eGFP expression corresponded closely to the profile of expression of endogenous HB9. ES-cell lines were derived from mHB9-Gfp1b heterozygous blastocysts, as previously described (Abbondanzo et al., Derivation of embryonic stem cell lines. Methods Enzymol., 225:803-23, 1993). One selected line (HBG3) was tested for its capacity to integrate into developing mouse blastocysts and its capacity for germline transmission.
HBG3 ES-cell embryoid bodies were dissociated using a papain dissociation system (Worthington Biochemical Corp.). Cells expressing high levels of eGFP were sorted from the cell suspension with a Beckman-Coulter Altra flow cytometer, based on their eGFP fluorescence and forward light scatter using the gate indicated in the plot. Typically, 20-30% of input cells expressed high levels of GFP. The analysis established that this eGFP-Hi cell group constituted a >95% pure population of motor neurons. The yield of a typical FACS sort is 3000-5000 GFP-Hi cells per EB.

The subject of data set [2] is neural progenitor cells in embryoid bodies. The data set is described as follows: Progenitor transcription factor expression (ventralization) in RA-exposed embryoid bodies. It counts as cell-based, mouse.
In data set [3] the test system is ES cells / embryoid bodies. Description: Suppression and induction of a neural character in differentiating embryoid bodies. In kind it is cell-based, mouse. The following applies: for acquisition of neural precursor cell fate (Sox1): 4 days of differentiation, factor present for entire culture (Wnt3a conditioned medium 1×, BMP4 10 ng/ml, SU5402 5 μM); for neural precursor or post-mitotic neural cells: EBs differentiated 4 days with RA+Wnt3a or RA+BMP4. The protocol: (§2) Medium was replaced every 2 days. Medium was supplemented by factors, at the start of ES-cell aggregation/differentiation (day 0) or on day 2, as indicated below, and cultured for a further 2-8 days.
(§3) Soluble Wnt3a and control-conditioned medium (Wilson et al., The status of Wnt signaling regulates neural and epidermal fates in the chick embryo. Nature, 411:325-30, 2001) were prepared, as previously described (Shibamoto et al., Cytoskeletal reorganization by soluble Wnt-3a protein signalling. Genes Cells, 3:659-70, 1998). Soluble Frizzled 8 (mFrz8CRD-IgG) and control-conditioned medium were prepared by transfecting HEK-293 cells with mfz8CRD-IgG (Hsieh et al., Biochemical characterization of Wnt-frizzled interactions using a soluble, biologically active vertebrate Wnt protein. Proc. Natl. Acad. Sci. USA, 96:3546-51, 1999) or LacZ reporter construct (Wilson et al., An early requirement for FGF signalling in the acquisition of neural cell fate in the chick embryo. Curr. Biol., 10:421-29, 2000). The transfected HEK-293 cells were then incubated for 48 h in OPTI-MEM medium. mFrzCRD-1gG conditioned medium was used undiluted.
Immunohistochemical localization of proteins was performed, as previously described (Yamada et al., Control of cell pattern in the developing nervous system: polarizing activity of the floor plate and notochord. Cell, 64:635-47, 1991). Neural precursor (neural progenitor) cells were delineated by expression of rabbit anti-Sox1. Post-mitotic neurons were delineated using mouse anti-Pax6. Otx1/Otx2 and Eng1, which are co-expressed at the midbrain/hindbrain boundary, were used to define cells of a midbrain-like character (Davis and Joyner, Expression patterns of the homeo box-containing genes En-1 and En-2 and the proto-oncogene int-1 diverge during mouse development. Genes Dev., 2:1736-44, 1988). Hox C6 and HoxC8 were used to delineate cells of a spinal-cord character. Krox20 (Covance) is expressed in hindbrain cells, in regions fated to give rise to rhombomeres 3 and 5; thus, co-expression of Sox1 and Otx1/Otx2, in the absence of Eng1 or Krox 20, was used to delineate an anterior/prosencephalic character (Lemaire and Kessel, Gastrulation and homeobox genes in chick embryos. Mech. Dev., 67:3-16, 1997).
In control experiments, 15-30% of cells attained a neural-cell fate when subjected to aggregation in differentiation medium. To suppress a neural-cell fate, medium was supplemented by Wnt3a conditioned medium (1×), BMP4 (10 ng/ml), or SU5402 (5 μM), at the start of ES-cell aggregation (day 0). To induce a neural-cell fate, medium was supplemented by mFRZ8CRD conditioned medium (2×) at the start of ES-cell aggregation (day 0). ES cells were differentiated for 4-8 days.

Data set [4] concerns ES-cell-derived neural precursor cells. Description: Caudalization of a neural character by Wnt3a. In kind it is cell-based, mouse. The conditions noted are these: Wnt3a at different concentrations and/or times; 2 days differentiation medium, then 2 days with Wnt3a. The protocol:
as §2, §3
Immunohistochemical localization of proteins was performed, as previously described (Yamada et al., Control of cell pattern in the developing nervous system: polarizing activity of the floor plate and notochord. Cell, 64:635-47, 1991). […]

A further data set has as its system mouse ES cells. Description: Directed differentiation of ES cells into LH2-positive dorsal spinal neurons. In kind it is cell-based. The following applies: embryoid bodies grown in the presence of BMP7. As to the method: Embryonic stem (ES) cells were grown on mouse embryonic fibroblasts in ES-cell medium, as described in Example 1. ES-cell colonies were partially dissociated with 0.05% trypsin/EDTA, after 2 days, and cultured in DFNB medium (neurobasal medium (Gibco) mixed with DMEM (Specialty Media, EmbryoMax) and F12 (Gibco), in a 2:1:1 ratio, supplemented with 1×B27 supplement, 0.1 mM 2-mercaptoethanol (Sigma), 2 mM L-glutamine (Gibco), and 1× penicillin/streptomycin (Gibco)) (˜10^5 cells/ml).
After 2 days in culture, embryoid bodies (EBs) were plated in DFNB medium supplemented with retinoic acid (100 nM to 1 μM) (Sigma). After 1-2 days in culture, in the presence of retinoic acid, EBs were collected, rinsed 2-3 times with PBS, and plated in DFNB medium supplemented with human BMP4 (10 ng/ml; R&D systems) or BMP7 (20 ng/ml). After an additional 4 days in culture, cells were fixed using 4% paraformaldehyde, and processed for immunocytochemistry.

Where [5] appears, read: RA-treated EBs, 10 nM Hh-Ag1.3, 3 days.

As for `CNC1CCC(N(Cc2cccc(-c3ccncc3)c2)C(=O)c2sc3ccccc3c2Cl)CC1` (centres unmarked) [Hh-Ag1.3], the “HB9+ neurons in EBs” value in data set [1] (Hh-Ag1.3 (1 μM) for 5 days without RA) was “No HB9^+ neurons were generated; also recorded: did not contain HB9^+ neurons”. Moreover, the “HB9+ neurons per section” value in data set [1] (RA-treated EBs plus SHh (300 nM) or Hh-Ag1.3 (1 μM)) was 509±57 HB9^+ neurons/section. Moreover, the “HB9+ neurons per EB” value in data set [1] (RA-treated EBs plus SHh (300 nM) or Hh-Ag1.3 (1 μM), ~10-15 sections per EB) is recorded as 5000 HB9^+ neurons. The “toxicity for cells differentiating in EBs” value with HBG3 ES cells (10 μM Hh-Ag1.3) was “became toxic for cells differentiating in EBs”. The “generation of eGFP+/HB9+ motor neurons” value with HBG3 ES cells (Hh-Ag1.3 (1 μM) in the absence of RA) is recorded as “failed to generate eGFP^+/HB9^+ motor neurons”. Further, in the data set on HBG3 ES cells (RA and 1 μM Hh-Ag1.3), the “eGFP+/HB9+ motor neurons as share of total cells in EBs” value was 20-30%. Moreover, the “cells in EBs expressing eGFP” value with HBG3 ES cells (RA plus 2.2 μM Hh-Ag1.3, 5 days) is listed as 22.5%. The “number of eGFP+/HB9+ motor neurons” value with HBG3 ES cells (RA-exposed HBG3 EBs plus Hh-Ag1.3, concentration-dependent (0 to 2.2 μM)) is recorded as “increased”. Besides, the “BrdU incorporation by Olig2+ cells” value in data set [2] (Hh-Ag1.3-exposed EBs, 3 days with RA) is on record as “incorporated BrdU”. In data set [2] (setting [5]), the “Nkx6.1+ and Olig2+ cells” value is “a few Nkx6.1^+ and Olig2^+ cells were detected”; the Pax7 expression entry is reported as “completely repressed”; the “number of Dbx1+ cells” value is “reduced”; the “number of Pax6+ and Irx3+ cells” value was “increased”. In data set [2] (RA-treated EBs, 1 μM Hh-Ag1.3), the Dbx1 expression result is “virtually eliminated”; the “HNF3β+ floor plate cells” value is recorded as “no HNF3β^+ floor plate cells were detected”; the “Nkx2.2+ cells” value is “a few Nkx2.2^+ cells were also induced”; the “number of Irx3+ and Pax6+ cells” value was “markedly reduced”. Besides, the “number of Nkx6+ and Olig2+ cells” value in data set [2] (RA-treated EBs, 1 μM Hh-Ag1.3) is listed as “large increase”.
Consider `CC1=C(/C=C/C(C)=C/C=C/C(C)=C/C(=O)O)C(C)(C)CCC1` [RA, retinoic acid], for which, in data set [1] (RA-exposed EBs grown alone for 5 days), the “HB9+ neurons per section” value came to 7±2 HB9^+ neurons/section.
Take `Cc1c[nH]c(/C=C2\C(=O)Nc3ccccc32)c1CCC(=O)O` [SU5402]: the “acquisition of neural precursor cell fate (Sox1)” value (from here on “acquisition”) in data set [3] is given as “could not acquire a neural precursor cell fate”.
Consider Wnt3a, for which, in data set [3], the “acquisition” value is on record as “could not acquire a neural precursor cell fate” and the “neural precursor or post-mitotic neural cells” value is “no neural precursor or post-mitotic neural cells were present”. Further, the “caudalization of neural cells” value in data set [4] was “progressively caudalized to hindbrain and spinal cord character”.

B1: BMP7: bone morphogenetic protein 7 (protein, UniProt P18075 293-431, looked up)
Bone morphogenetic protein 7: STGSKQRSQNRSKTPKNQEALRMANVAENSSSDQRQACKKHELYVSFRDLGWQDWIIAPEGYAAYYCEGECAFPLNSYMNATNHAIVQTLVHFINPETVPKPCCAPTQLNAISVLYFDDSSNVILKKYRNMVVRACGCH
On to B1, for which the “dorsal spinal neurons (LH2) and their progenitors (Math1)” value with mouse ES cells was “numerous dorsal neurons and their progenitors were observed”.

B2: BMP4: human BMP4 protein (bone morphogenetic protein), R&D systems (protein, UniProt P12644 293-408, looked up)
Bone morphogenetic protein 4: SPKHHSQRARKKNKNCRRHSLYVDFSDVGWNDWIVAPPGYQAFYCHGDCPFPLADHLNSTNHAIVQTLVNSVNSSIPKACCVPTELSAISMLYLDEYDKVVLKNYQEMVVEGCGCR
For B2, in data set [3], the “acquisition” value is “could not acquire a neural precursor cell fate” and the “neural precursor or post-mitotic neural cells” value is “no neural precursor or post-mitotic neural cells were present”.

The record behind these values is patent US7632679B2, “Systems and methods for screening for modulators of neural differentiation” (The Trustees of Columbia University in the City of New York, priority 2002, dated 2009).
